Values after ≈ are worked out from the molar mass of the structure shown.
What was measured:
Staphylococcus aureus [1] = assay: Antibacterial activity against Staphylococcus aureus Smith; assay type: functional
Streptococcus pneumoniae = assay: Antibacterial activity against Streptococcus pneumoniae IID553; assay type: functional
Enterococcus faecium = assay: Antibacterial activity against VanA-resistant Enterococcus faecium; assay type: functional
Escherichia coli = assay: Antibacterial activity against Escherichia coli ATCC 25922; assay type: functional
Acinetobacter baumannii = assay: Antibacterial activity against Acinetobacter baumannii IID876; assay type: functional
Pseudomonas aeruginosa = assay: Antibacterial activity against Pseudomonas aeruginosa PAO1; assay type: functional
Staphylococcus aureus [2] = assay: Antibacterial activity against Staphylococcus aureus Smith infected in iv dosed ICR mouse assessed as increase in survival rate administered at 1 hr post infection measured on day 7; assay type: functional
Staphylococcus aureus [3] = assay: Antibacterial activity against Staphylococcus aureus Smith infected in po dosed ICR mouse assessed as increase in survival rate administered at 1 hr post infection measured on day 7; assay type: functional
Staphylococcus aureus [4] = assay: Ratio of MIC for quinolone-resistant Staphylococcus aureus MS5935 to MIC for […]; assay type: functional
[5] = target: T1, Voltage-gated inwardly rectifying potassium channel KCNH2 (Homo sapiens, UniProt Q12809); assay: Inhibition of MK499 binding to human ERG
T1 sequence (Q12809 whole entry): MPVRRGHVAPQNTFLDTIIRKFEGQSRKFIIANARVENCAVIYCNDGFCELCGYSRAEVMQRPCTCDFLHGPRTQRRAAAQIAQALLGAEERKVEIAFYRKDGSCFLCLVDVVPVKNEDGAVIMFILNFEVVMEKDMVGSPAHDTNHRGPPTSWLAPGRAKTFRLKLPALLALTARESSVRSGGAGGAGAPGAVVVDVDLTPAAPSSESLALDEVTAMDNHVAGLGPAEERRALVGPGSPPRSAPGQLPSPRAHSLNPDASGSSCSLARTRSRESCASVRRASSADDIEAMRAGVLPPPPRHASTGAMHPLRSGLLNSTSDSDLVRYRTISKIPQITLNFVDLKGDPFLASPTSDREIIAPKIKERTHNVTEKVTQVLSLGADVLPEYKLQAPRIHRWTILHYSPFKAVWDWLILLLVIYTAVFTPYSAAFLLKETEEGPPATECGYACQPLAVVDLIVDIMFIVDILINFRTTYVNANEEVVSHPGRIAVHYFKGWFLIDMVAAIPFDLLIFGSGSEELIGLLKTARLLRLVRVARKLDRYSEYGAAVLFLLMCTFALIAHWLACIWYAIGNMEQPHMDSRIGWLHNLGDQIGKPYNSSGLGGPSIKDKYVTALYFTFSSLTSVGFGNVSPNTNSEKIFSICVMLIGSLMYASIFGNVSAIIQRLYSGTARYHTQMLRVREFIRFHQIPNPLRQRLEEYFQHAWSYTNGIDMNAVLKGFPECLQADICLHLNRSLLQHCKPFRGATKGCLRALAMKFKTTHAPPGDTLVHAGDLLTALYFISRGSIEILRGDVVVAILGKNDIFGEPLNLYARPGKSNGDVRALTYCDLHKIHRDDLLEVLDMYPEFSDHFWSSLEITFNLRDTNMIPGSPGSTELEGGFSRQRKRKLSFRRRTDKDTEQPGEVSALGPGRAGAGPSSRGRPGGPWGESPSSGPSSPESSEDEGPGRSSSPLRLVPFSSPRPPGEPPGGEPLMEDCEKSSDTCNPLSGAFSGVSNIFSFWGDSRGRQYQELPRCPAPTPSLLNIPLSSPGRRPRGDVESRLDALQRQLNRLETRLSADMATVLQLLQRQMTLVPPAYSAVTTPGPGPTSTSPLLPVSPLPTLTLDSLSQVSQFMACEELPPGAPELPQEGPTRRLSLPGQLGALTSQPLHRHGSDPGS

[6] = target: T1, Voltage-gated inwardly rectifying potassium channel KCNH2; assay: Inhibition of human ERG expressed in CHO cells measured for 5 mins by automated patch clamp assay
[7] = Staphylococcus aureus, Smith, read-out: MIC
[8] = Streptococcus pneumoniae, IID553, read-out: MIC
[9] = Enterococcus faecium, read-out: MIC
[10] = Escherichia coli, ATCC 25922, read-out: MIC
[11] = Acinetobacter baumannii, IID876, read-out: MIC
[12] = Pseudomonas aeruginosa, PAO1, read-out: MIC

Compound | MIC (Staphylococcus aureus [1]; [7]) | MIC (Streptococcus pneumoniae; [8]) | MIC (Enterococcus faecium; [9]) | MIC (Escherichia coli; [10]) | MIC (Acinetobacter baumannii; [11]) | MIC (Pseudomonas aeruginosa; [12]) | ED50 (Staphylococcus aureus [2]) | ED50 (Staphylococcus aureus [3]) | Ratio (Staphylococcus aureus [4]) | IC50 [5] | IC50 [6] | MIC (Staphylococcus aureus [1]) | MIC (Streptococcus pneumoniae) | MIC (Enterococcus faecium) | MIC (Escherichia coli) | MIC (Acinetobacter baumannii) | MIC (Pseudomonas aeruginosa)
COc1ccc2ncc(F)c(CCC34CCC(NCc5ccc6c(n5)NC(=O)CO6)(CC3)CO4)c2n1 | 0.02 µg/mL (≈ 0.0405 µM) | 0.13 µg/mL (≈ 0.263 µM) | 0.5 µg/mL (≈ 1.01 µM) | 1 µg/mL (≈ 2.03 µM) | 0.5 µg/mL (≈ 1.01 µM) | 4 µg/mL (≈ 8.1 µM) | – | – | – | – | – | – | – | – | – | – | –
COc1ccc2ncc(F)c(CCC34CCC(NCc5nc6c(cc5Cl)OCC(=O)N6)(CC3)CO4)c2n1 | 0.02 µg/mL (≈ 0.0379 µM) | 0.25 µg/mL (≈ 0.473 µM) | 1 µg/mL (≈ 1.89 µM) | 2 µg/mL (≈ 3.79 µM) | 1 µg/mL (≈ 1.89 µM) | 2 µg/mL (≈ 3.79 µM) | – | – | – | – | – | – | – | – | – | – | –
COc1ccc2ncc(F)c(CCC34CCC(NCc5nc6c(cc5F)OCC(=O)N6)(CC3)CO4)c2n1 | 0.02 µg/mL (≈ 0.0391 µM) | 0.13 µg/mL (≈ 0.254 µM) | 1 µg/mL (≈ 1.95 µM) | 2 µg/mL (≈ 3.91 µM) | 0.5 µg/mL (≈ 0.977 µM) | 8 µg/mL (≈ 15.6 µM) | 2.5 mg/kg | 3.9 mg/kg | – | – | – | – | – | – | – | – | –
COc1ccc2ncc(F)c(CCC34CCC(NCc5nc6c(cc5OC)OCC(=O)N6)(CC3)CO4)c2n1 | 4 µg/mL (≈ 7.64 µM) | 8 µg/mL (≈ 15.3 µM) | 8 µg/mL (≈ 15.3 µM) | 8 µg/mL (≈ 15.3 µM) | 8 µg/mL (≈ 15.3 µM) | 8 µg/mL (≈ 15.3 µM) | – | – | <4 | – | – | – | – | – | – | – | –
COc1ccc2ncc(F)c(CCC34CCC(NCc5nc6c(cc5C)OCC(=O)N6)(CC3)CO4)c2n1 | 0.06 µg/mL (≈ 0.118 µM) | 1 µg/mL (≈ 1.97 µM) | 1 µg/mL (≈ 1.97 µM) | 2 µg/mL (≈ 3.94 µM) | 0.5 µg/mL (≈ 0.985 µM) | 8 µg/mL (≈ 15.8 µM) | – | – | – | – | – | – | – | – | – | – | –
COc1ccc2ncc(F)c(CCC34CCC(NCc5cc(C)c6c(n5)NC(=O)CO6)(CC3)CO4)c2n1 | 0.5 µg/mL (≈ 0.985 µM) | 4 µg/mL (≈ 7.88 µM) | 8 µg/mL (≈ 15.8 µM) | 8 µg/mL (≈ 15.8 µM) | 4 µg/mL (≈ 7.88 µM) | 32 µg/mL (≈ 63 µM) | – | – | – | – | – | – | – | – | – | – | –
COc1ccc2ncc(F)c(CCC34CCC(NCc5nc6c(c(C)c5C)OCC(=O)N6)(CC3)CO4)c2n1 | 1.06 µg/mL (≈ 2.03 µM) | 8 µg/mL (≈ 15.3 µM) | 2 µg/mL (≈ 3.83 µM) | 2 µg/mL (≈ 3.83 µM) | 4 µg/mL (≈ 7.67 µM) | 16 µg/mL (≈ 30.7 µM) | – | – | – | – | – | – | – | – | – | – | –
CCc1c(CNC23CCC(CCc4c(F)cnc5ccc(OC)nc45)(CC2)OC3)nc2c(c1C)OCC(=O)N2 | 2 µg/mL (≈ 3.73 µM) | 32 µg/mL (≈ 59.7 µM) | 32 µg/mL (≈ 59.7 µM) | 32 µg/mL (≈ 59.7 µM) | 32 µg/mL (≈ 59.7 µM) | 32 µg/mL (≈ 59.7 µM) | – | – | – | – | – | – | – | – | – | – | –
COc1ccc2ncc(F)c(CCC34CCC(NCc5nc6c(c(C)c5C(C)C)OCC(=O)N6)(CC3)CO4)c2n1 | 32 µg/mL (≈ 58.2 µM) | 32 µg/mL (≈ 58.2 µM) | 32 µg/mL (≈ 58.2 µM) | 32 µg/mL (≈ 58.2 µM) | 32 µg/mL (≈ 58.2 µM) | 32 µg/mL (≈ 58.2 µM) | – | – | – | – | – | – | – | – | – | – | –
C=Cc1c(CNC23CCC(CCc4c(F)cnc5ccc(OC)nc45)(CC2)OC3)nc2c(c1C)OCC(=O)N2 | 0.25 µg/mL (≈ 0.469 µM) | 8 µg/mL (≈ 15 µM) | 32 µg/mL (≈ 60 µM) | 32 µg/mL (≈ 60 µM) | 32 µg/mL (≈ 60 µM) | 32 µg/mL (≈ 60 µM) | – | – | – | – | – | – | – | – | – | – | –
COc1ccc2ncc(F)c(CCC34CCC(NCc5nc6c(c(C)c5F)OCC(=O)N6)(CC3)CO4)c2n1 | 0.5 µg/mL (≈ 0.951 µM) | 4 µg/mL (≈ 7.61 µM) | 32 µg/mL (≈ 60.9 µM) | 32 µg/mL (≈ 60.9 µM) | 32 µg/mL (≈ 60.9 µM) | 32 µg/mL (≈ 60.9 µM) | – | – | – | – | – | – | – | – | – | – | –
COc1ccc2ncc(F)c(CCC34CCC(NCc5ccc6c(n5)NC(=O)C(C)(C)O6)(CC3)CO4)c2n1 | 0.25 µg/mL (≈ 0.479 µM) | 1 µg/mL (≈ 1.92 µM) | 2 µg/mL (≈ 3.83 µM) | 2 µg/mL (≈ 3.83 µM) | 2 µg/mL (≈ 3.83 µM) | 2 µg/mL (≈ 3.83 µM) | – | – | <4 | 3 µM | – | – | – | – | – | – | –
COc1ccc2ncc(F)c(CCC34CCC(NCc5ccc6c(n5)N(C)C(=O)CO6)(CC3)CO4)c2n1 | 2 µg/mL (≈ 3.94 µM) | 2 µg/mL (≈ 3.94 µM) | 16 µg/mL (≈ 31.5 µM) | 16 µg/mL (≈ 31.5 µM) | 16 µg/mL (≈ 31.5 µM) | 16 µg/mL (≈ 31.5 µM) | – | – | – | – | – | – | – | – | – | – | –
COc1ccc2ncc(F)c(CCC34CCC(N(C)Cc5ccc6c(n5)NC(=O)CO6)(CC3)CO4)c2n1 | 0.13 µg/mL (≈ 0.256 µM) | 2 µg/mL (≈ 3.94 µM) | 8 µg/mL (≈ 15.8 µM) | 16 µg/mL (≈ 31.5 µM) | 8 µg/mL (≈ 15.8 µM) | 32 µg/mL (≈ 63 µM) | – | – | <4 | 1.2 µM | – | – | – | – | – | – | –
COC(=O)N(Cc1ccc2c(n1)NC(=O)CO2)C12CCC(CCc3c(F)cnc4ccc(OC)nc34)(CC1)OC2 | 16 µg/mL (≈ 29 µM) | 64 µg/mL (≈ 116 µM) | 64 µg/mL (≈ 116 µM) | 64 µg/mL (≈ 116 µM) | 64 µg/mL (≈ 116 µM) | 64 µg/mL (≈ 116 µM) | – | – | – | – | – | – | – | – | – | – | –
COc1ccc2ncc(F)c(CCC34CCC(NC(=O)c5ccc6c(n5)NC(=O)CO6)(CC3)CO4)c2n1 | 0.02 µg/mL (≈ 0.0394 µM) | 0.5 µg/mL (≈ 0.985 µM) | 1 µg/mL (≈ 1.97 µM) | 8 µg/mL (≈ 15.8 µM) | 8 µg/mL (≈ 15.8 µM) | 8 µg/mL (≈ 15.8 µM) | – | – | – | – | – | – | – | – | – | – | –
COc1ccc2ncc(F)c(CCC34CCC(N(C)C(=O)c5ccc6c(n5)NC(=O)CO6)(CC3)CO4)c2n1 | 0.03 µg/mL (≈ 0.0575 µM) | 4 µg/mL (≈ 7.67 µM) | 4 µg/mL (≈ 7.67 µM) | 4 µg/mL (≈ 7.67 µM) | 4 µg/mL (≈ 7.67 µM) | 4 µg/mL (≈ 7.67 µM) | – | – | <4 | > 60 µM | > 30 µM | – | – | – | – | – | –
COc1ccc2ncc(F)c(C[C@H](O)C3CCC(NCc4nc5c(cc4F)OCC(=O)N5)CO3)c2n1 (stereo not given in full) | 0.03 µg/mL (≈ 0.0598 µM) | 0.25 µg/mL (≈ 0.499 µM) | 2 µg/mL (≈ 3.99 µM) | 4 µg/mL (≈ 7.98 µM) | 1 µg/mL (≈ 1.99 µM) | 16 µg/mL (≈ 31.9 µM) | 3.2 mg/kg | 6.7 mg/kg | – | – | – | – | – | – | – | – | –
COc1ccc2ncc(F)c(C[C@H](O)C3CCC(NCc4nc5c(cc4OC)OCC(=O)N5)CO3)c2n1 (stereo not given in full) | 16 µg/mL (≈ 31.2 µM) | 16 µg/mL (≈ 31.2 µM) | 16 µg/mL (≈ 31.2 µM) | 16 µg/mL (≈ 31.2 µM) | 16 µg/mL (≈ 31.2 µM) | 16 µg/mL (≈ 31.2 µM) | – | – | <4 | – | – | – | – | – | – | – | –
COc1ccc2ncc(F)c(C[C@H](O)C3CCC(NCc4ccc5c(n4)NC(=O)CO5)CO3)c2n1 (stereo not given in full) | 0.03 µg/mL (≈ 0.062 µM) | 2 µg/mL (≈ 4.14 µM) | 2 µg/mL (≈ 4.14 µM) | 16 µg/mL (≈ 33.1 µM) | 2 µg/mL (≈ 4.14 µM) | 32 µg/mL (≈ 66.2 µM) | – | – | <4 | – | – | – | – | – | – | – | –
COc1ccc2ncc(F)c(CCC34CCC(NCc5ccc6c(n5)NC(=O)C(C)O6)(CC3)CO4)c2n1 (single isomer, unassigned; (+)) | – | 0.25 µg/mL (≈ 0.493 µM) | 2 µg/mL (≈ 3.94 µM) | 2 µg/mL (≈ 3.94 µM) | 2 µg/mL (≈ 3.94 µM) | 2 µg/mL (≈ 3.94 µM) | – | – | – | – | – | 0.25 µg/mL (≈ 0.493 µM) | – | – | – | – | –
CCOC(=O)C1(C)Oc2ccc(CNC34CCC(CCc5c(F)cnc6ccc(OC)nc56)(CC3)OC4)nc2NC1=O (single isomer, unassigned; (+)) | 16 µg/mL (≈ 27.6 µM) | – | 16 µg/mL (≈ 27.6 µM) | 16 µg/mL (≈ 27.6 µM) | 16 µg/mL (≈ 27.6 µM) | 16 µg/mL (≈ 27.6 µM) | – | – | – | – | – | – | 16 µg/mL (≈ 27.6 µM) | – | – | – | –
COc1ccc2ncc(F)c(CCC34CCC(NCc5ccc6c(n5)NC(=O)C(C)O6)(CC3)CO4)c2n1 (single isomer, unassigned; (-)) | – | – | – | – | – | – | 14 mg/kg | 28 mg/kg | – | – | – | 0.06 µg/mL (≈ 0.118 µM) | 0.25 µg/mL (≈ 0.493 µM) | 2 µg/mL (≈ 3.94 µM) | 2 µg/mL (≈ 3.94 µM) | 1 µg/mL (≈ 1.97 µM) | 2 µg/mL (≈ 3.94 µM)
CCOC(=O)C1(C)Oc2ccc(CNC34CCC(CCc5c(F)cnc6ccc(OC)nc56)(CC3)OC4)nc2NC1=O (single isomer, unassigned; (-)) | – | 8 µg/mL (≈ 13.8 µM) | – | – | – | – | – | – | – | – | – | 8 µg/mL (≈ 13.8 µM) | – | 8 µg/mL (≈ 13.8 µM) | 8 µg/mL (≈ 13.8 µM) | 8 µg/mL (≈ 13.8 µM) | 8 µg/mL (≈ 13.8 µM)

— ChEMBL document CHEMBL3603741, “Structure activity relationship of pyridoxazinone substituted RHS analogs of oxabicyclooctane-linked 1,5-naphthyridinyl novel bacterial topoisomerase inhibitors as broad-spectrum antibacterial agents (Part-6)” (Bioorg Med Chem Lett, 2015)
